Data taken from patent US20090247732A1 (Optimer Pharmaceuticals, Inc., priority 2003, published 2009).
Ends that are not written are not given here. Peptide text beside a SMILES is read from it. * marks the point of attachment. Fmoc = O=C(OCC1c2ccccc2-c2ccccc21)*

Tests used:
[1] = system: trypsin; assay: Degradation study with trypsin (LCMS, product ratios by PDA integration); type: in vitro ADME; set-up: key to Deg 1 / Deg 2: product ratio (%) by PDA peak integration; conditions: for Deg 1 / Deg 2 / mode of enzymatic degradation (cleavage site / products): trypsin; for Deg 1 / Deg 2: pH 7.5; for Parent (%): 120 units trypsin, 0.1 M pH 7.5 potassium phosphate buffer; for mode of enzymatic degradation (cleavage site / products): in words
Protocol: Degradation Study: A solution of 1 (1 mg) in 0.1 M, pH 7.5 potassium phosphate buffer (1 mL) was treated with 120 units of trypsin (10 μL of a 1 mg/mL solution of trypsin 12000 units/mg). A 20 μL aliquot of the sample was immediately analyzed by LCMS.
Column: Waters Symmetry 300, 4.6×250 mm, C18, 5 micron particle size.
Solvent B: Acetonitrile/0.1% TFA
Gradient: 15-40% B over 30 minutes; 15% B isocratic for 10 minutes
The initial injection was defined as “time 0” and one subsequent injection was carried out at 40 minutes. The degradation products were characterized by mass spectrometry using electrospray positive ionization (ES^+). Product ratios were determined by integration of photodiode array (PDA) spectra.

[2] = system: trypsin; assay: trypsin in 0.1 M, pH 7.5 potassium phosphate buffer; conditions: up to 40 minutes
[3] = degradation product 1, time 40 minutes
[4] = degradation product 2, time 40 minutes
[5] = time 40 (injection at 40 minutes)

Row | Molecule | Deg 1 ([1]; degradation product 1, time 0) | Deg 1 [1, 3] | Deg 2 ([1]; degradation product 2, time 0) | Deg 2 [1, 4] | Parent (%) ([1]; time 0 (initial injection)) | Parent (%) [1, 5] | cleaved bond [2] | mode of enzymatic degradation (cleavage site / products) [1] | not cleaved [2] | fragment found [2]
1 | Compound 2: Crude triphenylmethyl protected glycopeptide from peptide A (SEQ ID No. 1) and carbohydrate glycolic acid C (KKRGGS; also: glycopeptide with carbohydrate glycolic acid C, triphenylmethyl protected) | 0 | 67 | – | – | 60% | 27% | – | a single, as yet uncharacterized product of the enzyme reaction | – | –
2 | KKRGGS | – | – | – | – | – | – | – | – | 100% parent at 40 minutes; no degradation products observed | –
3 | KKRGGS [1] | – | – | – | – | – | – | arginine-glycine, first_seen | – | – | the two lysine residues conjugated to the carbohydrate

Continued, in another order:

Row | Deg 1 ([1]; degradation product 1, time 0) | Deg 1 [1, 3] | Deg 2 ([1]; degradation product 2, time 0) | Deg 2 [1, 4] | Parent (%) ([1]; time 0 (initial injection)) | Parent (%) [1, 5] | cleaved bond [2] | Molecule | mode of enzymatic degradation (cleavage site / products) [1] | not cleaved [2] | fragment found [2]
4 | 5 | 0 | 20 | 100 | 75% | 0% | – | CC(=O)OCC1OC(OC2C(COC(C)=O)OC(OC3C(COC(C)=O)OC(OCC(=O)NC(CCCCN)C(=O)NC(CCCCN)C(=O)NC(CCCNC(=N)N)C(=O)NCC(=O)NCC(=O)NC(CO)C(=O)O)C(OC(C)=O)C3OC(C)=O)C(OC(C)=O)C2OC(C)=O)C(OC(C)=O)C(OC(C)=O)C1OC(C)=O (stereo not shown) [Compound 1] | hydrolysis is initially observed between the arginine and glycine residues | – | –
5 | 4 | 54 | 4 | 45 | 92% | 1% | – | N=C(N)NCCCC(NC(=O)C(CCCCN)NC(=O)C(CCCCN)NC(=O)OCC1c2ccccc2-c2ccccc21)C(=O)NCC(=O)NCC(=O)NC(CO)C(=O)O (stereo not shown) [Compound 4] (Fmoc-KKRGGS-OH; configuration not given here) | hydrolysis occurs sequentially inward from the N-terminus | – | –
